The source of these data is US9724382B2, “Pharmaceutical compositions comprising cyclosporin” (PARI Pharma GmbH, priority 2005, dated 2017).

Read-outs that look alike come from different tables or passages of the source.

Data set [1] concerns calu-3 cells (confluent monolayer). The note with it: for TEER after 2 h Average / TEER after 24 h Average: human.
The subject of another data set is calu-3 cells. Conditions: depending on the concentration; cited from earlier work.
Data set [2] has as its system calu-3 cells (confluent monolayer). Put plainly: Trans-epithelial electrical resistance (TEER) of calu-3 monolayer. Conditions: for TEER [% of 0 hours]: positive control 0.1%.

In the case of `CC(O)CO` (stereo not drawn) [Propylene glycol, propylene glycol], in data set [1], the “effect on the integrity of the calu-3 monolayer” value is “significant and largely non-reversible damage”. The “TEER after 2 h Average” value in data set [1] (0.1 %) was 116%; in data set [1] (0.5 %), 120%; in data set [1] (5 %) it was 36%; in data set [1] (10 %) it was 14%. In addition, the “TEER after 24 h Average” value in data set [1] (0.1 %) worked out at 83%; in data set [1] (0.5 %), 83%; in data set [1] (5 %), 75%; in data set [1] (10 %), 43%. For the same compound, in the data set on calu-3 cells, the “effect on calu-3 cells” value is given as “kills calu-3 cells”.

As to `CCCCCCCCCCCCOS(=O)(=O)[O-].[Na+]` [SDS, sodium dodecyl sulphate], the “TEER after 2 h Average” value in data set [2] (Conc. 0.001 %) turned out to be 114%; in data set [2] (Conc. 0.010 %), 7%; in data set [2] (Conc. 0.100 %), 3%. Besides, the entries for the “TEER after 24 h Average” value in data set [2] (Conc. 0.001 %), in data set [2] (Conc. 0.010 %) and in data set [2] (Conc. 0.100 %) were 107%, 2% and 2%, respectively. For the same compound, the “effect on the integrity of the calu-3 monolayer” value in data set [2] (conclusion from TEER values) was “significant and largely non-reversible damage”. Besides, the “TEER [% of 0 hours]” value was determined as 20% in data set [2] (time 0 h), 19% in data set [2] (time 1 h), 19% in data set [2] (time 2 h) and 11% in data set [2] (time 24 h).
